Patent publication US8399683B2 (TetraLogic Pharmaceuticals, priority 2008, dated 2013)

How the values were obtained:
XIAP BIR-3 = target: T1, XIAP BIR-3 (Homo sapiens, UniProt P98170); experiment: Fluorescence polarization binding affinity to XIAP BIR-3 (competition with AbuRPF-K(5-Fam)-NH2); conditions: 5 nM labeled peptide, 40 nM BIR3, 15 min at RT, pH 7.5; reported as ranges
T1 construct: 40 nM of the respective IAP BIR3
How it was run: (§1)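 Test peptides at varied concentrations competed with 5 nM fluorescent Smac-mimetic tracer for 40 nM BIR3 domain, 15 min at RT in 0.1M potassium phosphate pH 7.5 with […] bovine g-globulin. Polarization (mP) read at 485/520 nm; KD reported in bins (A=<0.1 μM, B=0.1–1 μM, C>1–10 μM, D=>10 μM).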

cIAP-1 BIR-3 = cIAP-1 BIR-3 (Homo sapiens, UniProt Q13490); experiment: Fluorescence polarization binding affinity to cIAP-1 BIR-3 (competition with AbuRPF-K(5-Fam)-NH2); conditions: 5 nM labeled peptide, 40 nM BIR3, 15 min at RT, pH 7.5; reported as ranges; read-out: KD (c-IAP-1 BIR3)
cIAP-1 BIR-3, sequence (Q13490 266-352 limits assumed): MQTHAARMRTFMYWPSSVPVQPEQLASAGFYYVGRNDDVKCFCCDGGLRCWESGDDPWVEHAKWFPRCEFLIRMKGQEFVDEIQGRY
How it was run: as §1

SK-OV-3 cells = experiment: Growth inhibition of ovarian cancer cell line SK-OV-3 (MTT assay, cell survival); assay type: cell-based; conditions: Homo sapiens, drug concentration that results in 50% cell survival, 72 hrs incubation, reported as ranges
How it was run: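 After overnight seeding in McCoy's medium with 10% FBS, SK-OV-3 cells were exposed to compound at 0.003-10 μM for 72 hrs at 37° C. MTT was then added for 3 h, with DMSO solubilization and OD read at 535 nm. CC50 is the concentration giving 50% survival relative to untreated control, reported as ranges.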

T1 sequence (P98170 241-356 limits assumed): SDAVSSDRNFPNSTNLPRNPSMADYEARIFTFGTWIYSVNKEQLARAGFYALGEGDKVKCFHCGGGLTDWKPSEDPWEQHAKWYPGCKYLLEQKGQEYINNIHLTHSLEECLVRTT

SMILES | Kd (XIAP BIR-3) | Kd (cIAP-1 BIR-3) | CC50 (SK-OV-3 cells)
CN[C@@H](C)C(=O)N[C@H](C(=O)N1CC[C@@H]2[C@H]1[C@@H](c1c[nH]c3cc(F)ccc13)CN2S(C)(=O)=O)C(C)(C)C [Example 50, N-{1-[6-(6-Fluoro-1H-indol-3-yl)-4-methanesulfonyl-hexahydro-pyrrolo[3,2-b]pyrrole-1-carbonyl]-2,2-dimethyl-propyl}-2-methylamino-propionamide] | < 100 nM | < 100 nM | < 100 nM
CN[C@@H](C)C(=O)N[C@@H](CO)C(=O)N1CC[C@@H]2[C@H]1[C@H](c1c[nH]c3cc(F)ccc13)CN2S(C)(=O)=O [Example 51, N-{2-[6-(6-Fluoro-1H-indol-3-yl)-4-methanesulfonyl-hexahydro-pyrrolo[3,2-b]pyrrol-1-yl]-1-hydroxymethyl-2-oxo-ethyl}-2-methylamino-propionamide] | > 10000 nM | 1000 to 10000 nM | > 10000 nM
CN[C@@H](C)C(=O)N[C@@H](CO)C(=O)N1CC[C@@H]2[C@H]1[C@@H](c1c[nH]c3cc(F)ccc13)CN2S(C)(=O)=O [Example 52, N-{2-[6-(6-Fluoro-1H-indol-3-yl)-4-methanesulfonyl-hexahydro-pyrrolo[3,2-b]pyrrol-1-yl]-1-hydroxymethyl-2-oxo-ethyl}-2-methylamino-propionamide] | < 100 nM | < 100 nM | 1000 to 10000 nM
CN[C@@H](C)C(=O)N[C@@H](COC)C(=O)N1CC[C@@H]2[C@H]1[C@H](c1c[nH]c3cc(F)ccc13)CN2S(C)(=O)=O [Example 53, N-{2-[6-(6-Fluoro-1H-indol-3-yl)-4-methanesulfonyl-hexahydro-pyrrolo[3,2-b]pyrrol-1-yl]-1-methoxymethyl-2-oxo-ethyl}-2-methylamino-propionamide] | > 10000 nM | 1000 to 10000 nM | > 10000 nM
CN[C@@H](C)C(=O)N[C@@H](COC)C(=O)N1CC[C@@H]2[C@H]1[C@@H](c1c[nH]c3cc(F)ccc13)CN2S(C)(=O)=O [Example 54] | < 100 nM | < 100 nM | 100 to 1000 nM
CN[C@@H](C)C(=O)N[C@H](C(=O)N1CC[C@@H]2[C@H]1[C@H](c1c[nH]c3cc(F)ccc13)CN2S(C)(=O)=O)[C@@H](C)O [Example 55, N-{1-[6-(6-Fluoro-1H-indol-3-yl)-4-methanesulfonyl-hexahydro-pyrrolo[3,2-b]pyrrole-1-carbonyl]-2-hydroxy-propyl}-2-methylamino-propionamide] | > 10000 nM | 1000 to 10000 nM | > 10000 nM
CN[C@@H](C)C(=O)N[C@H](C(=O)N1CC[C@@H]2[C@H]1[C@@H](c1c[nH]c3cc(F)ccc13)CN2S(C)(=O)=O)C(C)O (stereo partly drawn) [Example 56] | < 100 nM | < 100 nM | < 100 nM
CN[C@@H](C)C(=O)N[C@H](C(=O)N1CC[C@@H]2[C@H]1[C@H](c1c[nH]c3cc(F)ccc13)CN2S(C)(=O)=O)[C@@H](C)OC [Example 57, N-{1-[6-(6-Fluoro-1H-indol-3-yl)-4-methanesulfonyl-hexahydro-pyrrolo[3,2-b]pyrrole-1-carbonyl]-2-methoxy-propyl}-2-methylamino-propionamide] | > 10000 nM | 100 to 1000 nM | > 10000 nM
CN[C@@H](C)C(=O)N[C@H](C(=O)N1CC[C@@H]2[C@H]1[C@@H](c1c[nH]c3cc(F)ccc13)CN2S(C)(=O)=O)[C@@H](C)OC [Example 58, N-{1-[6-(6-Fluoro-1H-indol-3-yl)-4-methanesulfonyl-hexahydro-pyrrolo[3,2-b]pyrrole-1-carbonyl]-2-methoxy-propyl}-2-methylamino-propionamide] | < 100 nM | < 100 nM | < 100 nM
CN[C@@H](C)C(=O)N[C@H](C(=O)N1CC[C@@H]2[C@H]1[C@@H](c1c[nH]c3cc(F)ccc13)CN2C(C)=O)C1CCCCC1 [Example 59, N-{2-[4-Acetyl-6-(6-fluoro-1H-indol-3-yl)-hexahydro-pyrrolo[3,2-b]pyrrol-1-yl]-1-cyclohexyl-2-oxo-ethyl}-2-methylamino-propionamide] | < 100 nM | < 100 nM | < 100 nM
CC[C@H](NC(=O)[C@H](C)NC)C(=O)N1CC[C@@H]2[C@H]1[C@@H](c1c[nH]c3cc(F)ccc13)CN2C(C)=O [Example 60, N-{1-[4-Acetyl-6-(6-fluoro-1H-indol-3-yl)-hexahydro-pyrrolo[3,2-b]pyrrole-1-carbonyl]-propyl}-2-methylamino-propionamide] | < 100 nM | < 100 nM | < 100 nM
CN[C@@H](C)C(=O)N[C@H](C(=O)N1CC[C@@H]2[C@H]1[C@@H](c1c[nH]c3cc(F)ccc13)CN2C(C)=O)C(C)C [Example 61, N-{1-[4-Acetyl-6-(6-fluoro-1H-indol-3-yl)-hexahydro-pyrrolo[3,2-b]pyrrole-1-carbonyl]-2-methyl-propyl}-2-methylamino-propionamide] | < 100 nM | < 100 nM | < 100 nM
CN[C@@H](C)C(=O)N[C@H](C(=O)N1CC[C@@H]2[C@H]1[C@@H](c1c[nH]c3cc(F)ccc13)CN2C(C)=O)C(C)(C)C [Example 62, N-{1-[4-Acetyl-6-(6-fluoro-1H-indol-3-yl)-hexahydro-pyrrolo[3,2-b]pyrrole-1-carbonyl]-2,2-dimethyl-propyl}-2-methylamino-propionamide] | < 100 nM | < 100 nM | < 100 nM
CN[C@@H](C)C(=O)N[C@@H](CO)C(=O)N1CC[C@@H]2[C@H]1[C@@H](c1c[nH]c3cc(F)ccc13)CN2C(C)=O [Example 63, N-{2-[4-Acetyl-6-(6-fluoro-1H-indol-3-yl)-hexahydro-pyrrolo[3,2-b]pyrrol-1-yl]-1-hydroxymethyl-2-oxo-ethyl}-2-methylamino-propionamide] | < 100 nM | < 100 nM | 1000 to 10000 nM
CN[C@@H](C)C(=O)N[C@@H](COC)C(=O)N1CC[C@@H]2[C@H]1[C@@H](c1c[nH]c3cc(F)ccc13)CN2C(C)=O [Example 64, N-{2-[4-Acetyl-6-(6-fluoro-1H-indol-3-yl)-hexahydro-pyrrolo[3,2-b]pyrrol-1-yl]-1-methoxymethyl-2-oxo-ethyl}-2-methylamino-propionamide] | 100 to 1000 nM | < 100 nM | 100 to 1000 nM
CN[C@@H](C)C(=O)N[C@H](C(=O)N1CC[C@@H]2[C@H]1[C@@H](c1c[nH]c3cc(F)ccc13)CN2C(C)=O)[C@@H](C)O [Example 65, N-{1-[4-Acetyl-6-(6-fluoro-1H-indol-3-yl)-hexahydro-pyrrolo[3,2-b]pyrrole-1-carbonyl]-2-hydroxy-propyl}-2-methylamino-propionamide] | < 100 nM | < 100 nM | 100 to 1000 nM
CN[C@@H](C)C(=O)N[C@H](C(=O)N1CC[C@@H]2[C@H]1[C@@H](c1c[nH]c3cc(F)ccc13)CN2C(C)=O)[C@@H](C)OC [Example 66, N-{1-[4-Acetyl-6-(6-fluoro-1H-indol-3-yl)-hexahydro-pyrrolo[3,2-b]pyrrole-1-carbonyl]-2-methoxy-propyl}-2-methylamino-propionamide] | < 100 nM | < 100 nM | < 100 nM
